Literature values in US4127532A, “Novel heptapeptides, intermediates therefor, and compositions and methods employing said heptapeptides” (priority 1977, dated 1978).

Legend:
[1] = injected directly into the brain of the rat
[2] = system: partially purified brain opiate receptor sites

H-Tyr-Gly-Gly-Phe-Met-OH [methionine enkephalin]
analgesic activity [1]: weak analgesic agent of short duration
binding to partially purified brain opiate receptor sites [2]: binds stereo-specifically
activity in bioassays for opiate activity (opiate activity): very active
